Experimental data taken from patent publication US20100267561A1, “HERBICIDAL PYRIDAZINONE DERIVATIVES” (priority 2007, published 2010).

Columns and labels:
Assay in all cases: Test E pre-/postemergence plant response
Type in all cases: in vivo
[1] = tested on: itchgrass (Rottboellia cochinchinensis); settings: scale 0 to 100
Procedure, shortened: (§1)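 Formulated in a non-phytotoxic solvent mixture containing surfactant, compound was applied to soil at planting or sprayed on emerged plants at the 1- to 4-leaf stage. Visual comparison with controls followed 14 to 21 days in the greenhouse; 0 = no effect, 100 = complete control.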

[2] = tested on: broadleaf signalgrass (Brachiaria platyphylla); settings: scale 0 to 100
Procedure, shortened: as §1

[3] = tested on: large crabgrass (Digitaria sanguinalis); settings: scale 0 to 100
Procedure, shortened: as §1

[4] = tested on: green foxtail (Setaria viridis); settings: scale 0 to 100
Procedure, shortened: as §1

[5] = tested on: common purslane (Portulaca oleracea); settings: scale 0 to 100
Procedure, shortened: as §1

[6] = tested on: common mallow (Malva sylvestris); settings: Postemergence, scale 0 to 100
Procedure, shortened: as §1

[7] = tested on: surinam grass (Brachiaria decumbens); settings: scale 0 to 100
Procedure, shortened: as §1

[8] = tested on: dallisgrass (Paspalum dilatatum); settings: scale 0 to 100
Procedure, shortened: as §1

[9] = tested on: goosegrass (Eleusine indica); settings: scale 0 to 100
Procedure, shortened: as §1

[10] = tested on: purple nutsedge (Cyperus rotundus); settings: scale 0 to 100
Procedure, shortened: as §1

[11] = tested on: guineagrass (Panicum maximum); settings: scale 0 to 100
Procedure, shortened: as §1

[12] = tested on: bermudagrass (Cynodon dactylon); settings: scale 0 to 100
Procedure, shortened: as §1

[13] = tested on: black mustard (Brassica nigra); settings: scale 0 to 100
Procedure, shortened: as §1

[14] = tested on: quackgrass (Elytrigia repens); settings: scale 0 to 100
Procedure, shortened: as §1

CCc1cc(-c2ccc(Cl)cc2)nn1-c1c(OC(=O)C(C)(C)C)cnn(C)c1=O [Compound 40]
Plant response rating, Itchgrass ([1]; 16 g ai/ha, Preemergence): 60
Plant response rating, Itchgrass ([1]; 31 g ai/ha, Preemergence): 75
Plant response rating, Itchgrass ([1]; 62 g ai/ha, Preemergence): 85
Plant response rating, Itchgrass ([1]; Postemergence, 8 g ai/ha): 40
Plant response rating, Itchgrass ([1]; Postemergence, 16 g ai/ha): 40
Plant response rating, Itchgrass ([1]; Postemergence, 31 g ai/ha): 80
Plant response rating, Itchgrass ([1]; Postemergence, 62 g ai/ha): 80
Plant response rating, Signalgrass ([2]; 16 g ai/ha, Preemergence): 95
Plant response rating, Signalgrass ([2]; 31 g ai/ha, Preemergence): 98
Plant response rating, Signalgrass ([2]; 62 g ai/ha, Preemergence): 100
Plant response rating, Signalgrass ([2]; Postemergence, 8 g ai/ha): 75
Plant response rating, Signalgrass ([2]; Postemergence, 16 g ai/ha): 90
Plant response rating, Signalgrass ([2]; Postemergence, 31 g ai/ha): 95
Plant response rating, Signalgrass ([2]; Postemergence, 62 g ai/ha): 100
Plant response rating, Crabgrass, Large ([3]; 8 g ai/ha, Preemergence): 50
Plant response rating, Crabgrass, Large ([3]; 16 g ai/ha, Preemergence): 70
Plant response rating, Crabgrass, Large ([3]; 31 g ai/ha, Preemergence): 100
Plant response rating, Crabgrass, Large ([3]; 62 g ai/ha, Preemergence): 100
Plant response rating, Crabgrass, Large ([3]; Postemergence, 8 g ai/ha): 75
Plant response rating, Crabgrass, Large ([3]; Postemergence, 16 g ai/ha): 85
Plant response rating, Crabgrass, Large ([3]; Postemergence, 31 g ai/ha): 90
Plant response rating, Crabgrass, Large ([3]; Postemergence, 62 g ai/ha): 95
Plant response rating, Foxtail, Green ([4]; 8 g ai/ha, Preemergence): 40
Plant response rating, Foxtail, Green ([4]; 16 g ai/ha, Preemergence): 75
Plant response rating, Foxtail, Green ([4]; 31 g ai/ha, Preemergence): 98
Plant response rating, Foxtail, Green ([4]; 62 g ai/ha, Preemergence): 100
Plant response rating, Foxtail, Green ([4]; Postemergence, 8 g ai/ha): 70
Plant response rating, Foxtail, Green ([4]; Postemergence, 16 g ai/ha): 80
Plant response rating, Foxtail, Green ([4]; Postemergence, 31 g ai/ha): 95
Plant response rating, Foxtail, Green ([4]; Postemergence, 62 g ai/ha): 98
Plant response rating, Purslane ([5]; 16 g ai/ha, Preemergence): 0
Plant response rating, Purslane ([5]; 31 g ai/ha, Preemergence): 0
Plant response rating, Purslane ([5]; 62 g ai/ha, Preemergence): 0
Plant response rating, Purslane ([5]; Postemergence, 8 g ai/ha): 0
Plant response rating, Purslane ([5]; Postemergence, 16 g ai/ha): 0
Plant response rating, Purslane ([5]; Postemergence, 31 g ai/ha): 0
Plant response rating, Purslane ([5]; Postemergence, 62 g ai/ha): 0
Plant response rating, Mallow ([6]; 8 g ai/ha): 0
Plant response rating, Mallow ([6]; 16 g ai/ha): 0
Plant response rating, Mallow ([6]; 31 g ai/ha): 0
Plant response rating, Mallow ([6]; 62 g ai/ha): 0
Plant response rating, Surinam Grass ([7]; 16 g ai/ha, Preemergence): 100
Plant response rating, Surinam Grass ([7]; 31 g ai/ha, Preemergence): 100
Plant response rating, Surinam Grass ([7]; 62 g ai/ha, Preemergence): 100
Plant response rating, Surinam Grass ([7]; Postemergence, 8 g ai/ha): 90
Plant response rating, Surinam Grass ([7]; Postemergence, 16 g ai/ha): 90
Plant response rating, Surinam Grass ([7]; Postemergence, 31 g ai/ha): 100
Plant response rating, Surinam Grass ([7]; Postemergence, 62 g ai/ha): 100
Plant response rating, Dallisgrass ([8]; 8 g ai/ha, Preemergence): 80
Plant response rating, Dallisgrass ([8]; 16 g ai/ha, Preemergence): 95
Plant response rating, Dallisgrass ([8]; 31 g ai/ha, Preemergence): 100
Plant response rating, Dallisgrass ([8]; 62 g ai/ha, Preemergence): 100
Plant response rating, Dallisgrass ([8]; Postemergence, 8 g ai/ha): 65
Plant response rating, Dallisgrass ([8]; Postemergence, 16 g ai/ha): 75
Plant response rating, Dallisgrass ([8]; Postemergence, 31 g ai/ha): 80
Plant response rating, Dallisgrass ([8]; Postemergence, 62 g ai/ha): 95
Plant response rating, Goosegrass ([9]; 8 g ai/ha, Preemergence): 75
Plant response rating, Goosegrass ([9]; 16 g ai/ha, Preemergence): 98
Plant response rating, Goosegrass ([9]; 31 g ai/ha, Preemergence): 100
Plant response rating, Goosegrass ([9]; 62 g ai/ha, Preemergence): 100
Plant response rating, Goosegrass ([9]; Postemergence, 8 g ai/ha): 65
Plant response rating, Goosegrass ([9]; Postemergence, 16 g ai/ha): 65
Plant response rating, Goosegrass ([9]; Postemergence, 31 g ai/ha): 80
Plant response rating, Goosegrass ([9]; Postemergence, 62 g ai/ha): 95
Plant response rating, Nutsedge, Purple ([10]; 16 g ai/ha, Preemergence): 0
Plant response rating, Nutsedge, Purple ([10]; 31 g ai/ha, Preemergence): 0
Plant response rating, Nutsedge, Purple ([10]; 62 g ai/ha, Preemergence): 0
Plant response rating, Nutsedge, Purple ([10]; Postemergence, 8 g ai/ha): 0
Plant response rating, Nutsedge, Purple ([10]; Postemergence, 16 g ai/ha): 0
Plant response rating, Nutsedge, Purple ([10]; Postemergence, 31 g ai/ha): 0
Plant response rating, Nutsedge, Purple ([10]; Postemergence, 62 g ai/ha): 0
Plant response rating, Guineagrass ([11]; 16 g ai/ha, Preemergence): 100
Plant response rating, Guineagrass ([11]; 31 g ai/ha, Preemergence): 100
Plant response rating, Guineagrass ([11]; 62 g ai/ha, Preemergence): 100
Plant response rating, Guineagrass ([11]; Postemergence, 8 g ai/ha): 80
Plant response rating, Guineagrass ([11]; Postemergence, 16 g ai/ha): 90
Plant response rating, Guineagrass ([11]; Postemergence, 31 g ai/ha): 95
Plant response rating, Guineagrass ([11]; Postemergence, 62 g ai/ha): 100
Plant response rating, Bermudagrass ([12]; 8 g ai/ha, Preemergence): 40
Plant response rating, Bermudagrass ([12]; 16 g ai/ha, Preemergence): 80
Plant response rating, Bermudagrass ([12]; 31 g ai/ha, Preemergence): 98
Plant response rating, Bermudagrass ([12]; 62 g ai/ha, Preemergence): 100
Plant response rating, Bermudagrass ([12]; Postemergence, 8 g ai/ha): 30
Plant response rating, Bermudagrass ([12]; Postemergence, 16 g ai/ha): 50
Plant response rating, Bermudagrass ([12]; Postemergence, 31 g ai/ha): 60
Plant response rating, Bermudagrass ([12]; Postemergence, 62 g ai/ha): 70
Plant response rating, Mustard, Black ([13]; 8 g ai/ha, Preemergence): 0
Plant response rating, Mustard, Black ([13]; 16 g ai/ha, Preemergence): 0
Plant response rating, Mustard, Black ([13]; 31 g ai/ha, Preemergence): 0
Plant response rating, Mustard, Black ([13]; 62 g ai/ha, Preemergence): 0
Plant response rating, Mustard, Black ([13]; Postemergence, 8 g ai/ha): 0
Plant response rating, Mustard, Black ([13]; Postemergence, 16 g ai/ha): 0
Plant response rating, Mustard, Black ([13]; Postemergence, 31 g ai/ha): 0
Plant response rating, Mustard, Black ([13]; Postemergence, 62 g ai/ha): 0
Plant response rating, Quackgrass ([14]; 16 g ai/ha, Preemergence): 60
Plant response rating, Quackgrass ([14]; 31 g ai/ha, Preemergence): 80
Plant response rating, Quackgrass ([14]; 62 g ai/ha, Preemergence): 90
Plant response rating, Quackgrass ([14]; Postemergence, 8 g ai/ha): 30
Plant response rating, Quackgrass ([14]; Postemergence, 16 g ai/ha): 50
Plant response rating, Quackgrass ([14]; Postemergence, 31 g ai/ha): 70
Plant response rating, Quackgrass ([14]; Postemergence, 62 g ai/ha): 95
